The text below walks through data of patent US9499493B2, “2,4-pyrimidinediamine compounds and their uses” (Rigel Pharmaceuticals, Inc., priority 2002, dated 2016).

Structures are written as SMILES. A value given as a limit tells only on which side of the number the result lay.

In the experiment the test system is cultured human mast cells (CHMC). Kind of experiment: CHMC low cell density IgE activation: tryptase assay. The settings on record: anti-IgE. The class given is cell-based. The procedure:
Pellet CHMC cells (980 rpm, 10 min) and resuspend in pre-warmed MT. Add 65 ul of cells to each 96-well plate. Depending on the degranulation activity for each particular CHMC donor, load 1000-1500 cells/well. Mix four times followed by a 1 hr incubation at 37° C. […] Stimulate cells by adding 25 ul of 6× anti-IgE solution to the appropriate plates. Add 25 ul MT to un-stimulated control wells. Mix twice following addition of the anti-IgE. Incubate at 37° C. for 30 minutes. […] Spin plates at 1000 rpm for 10 min to pellet cells. Transfer 25 ul of supernatant to a 96-well black bottom plate and add 100 ul of freshly diluted tryptase substrate solution to each well. Incubate plates at room temperature for 30 min.
The molecule `O=C(O)COc1ccc(Nc2ncc(F)c(Nc3ccc4c(c3)OCCO4)n2)cc1` [R926238, N2-(4-Carboxymethyleneoxyphenyl)-N4-(3,4-ethylenedioxyphenyl)-5-fluoro-2,4-pyrimidinediamine] registered an IC50 of over 10000 nM.
Regarding `CNC(=O)COc1cccc(Nc2ncc(F)c(Nc3cccc(-c4nnc(-c5cccc(Cl)c5)o4)c3)n2)c1` [R926871, N4-[3-(2-(3-Chlorophenyl)-1,3,4-oxadiazol-5-yl)phenyl]-5-fluoro-N2-[3-(N-methylamino)carbonylmethyleneoxyphenyl]-2,4-pyrimidinediamine], the IC50 turned out to be 2150 nM.
`CCOC(=O)C1CCN(C(=O)c2cccc(Nc3nc(Nc4cccc(OCC(=O)NC)c4)ncc3F)c2)CC1` [R926941, N4-[3-[[4-(Ethoxycarbonyl)piperidino]carbonyl]phenyl]-5-fluoro-N2-[3-[(N-methylamino)carbonylmethyleneoxy]phenyl]-2,4-pyrimidinediamine]: inhibition was half-maximal at 4200 nM (IC50).
Molecule `COc1ccc(Nc2nc(Cl)ncc2F)cn1` [Compound R926878] showed an IC50 of over 10000 nM.
On to `Fc1cnc(NCc2ccc3c(c2)OCO3)nc1NCc1ccc2c(c1)OCO2` [R925770, N2,N4-Bis(piperonyl)-5-fluoro-2,4-pyrimidineamine], for which the IC50 is over 10000 nM.
`CC(C)Oc1ccc(Nc2ncc(F)c(Nc3ccc4[nH]ncc4c3)n2)cc1` [R935266, 5-Fluoro-N4-(indazoline-5-yl)-N2-(4-isopropoxyphenyl)-2,4-pyrimidinediamine] registered an IC50 of 2970 nM.
The molecule `COc1cc(C(=O)NS(=O)(=O)c2ccccc2C)ccc1Cn1ncc2ccc(Nc3ncc(F)c(Nc4ccc5c(c4)OCCO5)n3)cc21` [R935323, N4-(3,4-Ethylenedioxyphenyl)-5-fluoro-N4-[1-[2-methoxy-4-(o-toluylsulfonamidocarboxy)benzyl]indazoline-6-yl]-2,4-pyrimidinediamine] gave an IC50 of over 10000 nM.
On to `Fc1cnc(Nc2ccc3c(c2)OCCO3)nc1Nc1ccc2[nH]ncc2c1` [R935267, N2-(3,4-Ethyelenedioxyphenyl)-5-fluoro-N4-(indazoline-5-yl)-2,4-pyrimidinediamine], for which the IC50 is 2460 nM.
Regarding `COC(=O)c1ccc(Cn2ncc3ccc(Nc4ncc(F)c(Nc5ccc6c(c5)OCCO6)n4)cc32)c(OC)c1` [R935320, N4-(3,4-Ethylenedioxyphenyl)-5-fluoro-N2-[1-(2-methoxy-4-carbomethoxybenzyl)indazoline-6-yl]-2,4-pyrimidinediamine], inhibition was half-maximal at 2770 nM (IC50).
`CNC(=O)COc1cccc(Nc2ncc(F)c(Nc3cnc4c(c3)OCCN4)n2)c1` [R945263, 5-Fluoro-N2-(3-methylaminocarbonylmethyleneoxyphenyl)-N4-[2H-pyrido[3,2-b]-1,4-oxazin-7-yl]-2,4-pyrimidinediamine]: the IC50 was 1640 nM.
In the case of `CCOC(=O)C(C)(C)Oc1cccc(Nc2ncc(F)c(Nc3ccc4c(c3)OCCO4)n2)c1` [R926907, N2-[3-(Ethoxycarbonyl-1,1-dimethylmethyleneoxy)phenyl]-N4-(3,4-ethylenedioxyphenyl)-5-fluoro-2,4-pyrimidinediamine] it was 764 nM; in that of `Fc1ccc(Nc2nc(Cl)ncc2F)cc1F` [Compound R926882], over 10000 nM; in that of `COc1ccc(Nc2nc(Nc3cc(C)c(O)c(Cl)c3)ncc2F)cc1CN1CCNCC1` [R940318, N2-(3-Chloro-4-hydroxy-5-methylphenyl)-5-fluoro-N4-[3-(N-piperazinomethylene)-4-methoxyphenyl]-2,4-pyrimidinediamine], 3790 nM.
In the case of `COC(=O)c1ccc(Cn2ncc3ccc(Nc4ncc(F)c(Nc5cccc(O)c5)n4)cc32)c(OC)c1` [R935321, 5-Fluoro-N4-(3-hydroxyphenyl)-N2-[1-(2-methoxy-4-carbomethoxybenzyl)indazoline-6-yl]-2,4-pyrimidinediamine], the IC50 is 2990 nM.
